According to ChEMBL document CHEMBL1201862, “PubChem BioAssay data set” (2004):
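Briefly, cells in 96-well plates were exposed to five compound concentrations for 48 h, and endpoints were estimated by linear interpolation. GI50 = concentration required for 50% inhibition of growth.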 Calls of active or inactive are those of the source. Cut-off read from the data, not from the text of the source: active = GI50 up to about 1.1 µM and inactive = higher.

Legend:
Experiment in all cases: NCI anticancer screen, dose series, 48 h
786-0 = system: 786-0
A498 = system: A498
A549 = system: A549
ACHN = system: ACHN
BT-549 = system: BT-549
CAKI-1 = system: CAKI-1
CCRF-CEM = system: CCRF-CEM
COLO 205 = system: COLO 205
DU-145 = system: DU-145
EKVX = system: EKVX
HCC 2998 = system: HCC 2998
HCT-116 = system: HCT-116
HCT-15 = system: HCT-15
HL-60 = system: HL-60
HOP-62 = system: HOP-62
HOP-92 = system: HOP-92
HT-29 = system: HT-29
Hs-578T = system: Hs-578T
IGROV-1 = system: IGROV-1
K562 = system: K562
KM12 = system: KM12
LOX IMVI = system: LOX IMVI
M14 = system: M14
MCF7 = system: MCF7
MDA-MB-231 = system: MDA-MB-231
MDA-MB-435 = system: MDA-MB-435
MDA-N = system: MDA-N
MOLT-4 = system: MOLT-4
Malme-3M = system: Malme-3M
NCI-H226 = system: NCI-H226
NCI-H23 = system: NCI-H23
NCI-H460 = system: NCI-H460
NCI-H522 = system: NCI-H522
NCI/ADR-RES = system: NCI/ADR-RES
OVCAR-3 = system: OVCAR-3
OVCAR-4 = system: OVCAR-4
OVCAR-5 = system: OVCAR-5
OVCAR-8 = system: OVCAR-8
PC-3 = system: PC-3
RPMI-8226 = system: RPMI-8226
RXF 393 = system: RXF 393
SF-268 = system: SF-268
SF-295 = system: SF-295
SF-539 = system: SF-539
SK-MEL-28 = system: SK-MEL-28
SK-MEL-2 = system: SK-MEL-2
SK-MEL-5 = system: SK-MEL-5
SK-OV-3 = system: SK-OV-3
SN12C = system: SN12C
SNB-19 = system: SNB-19
SNB-75 = system: SNB-75
SR = system: SR
SW-620 = system: SW-620
T47D = system: T47D
TK-10 = system: TK-10
U-251 = system: U-251
UACC-257 = system: UACC-257
UACC-62 = system: UACC-62
UO-31 = system: UO-31

O=P12N(CCN1c1ccccc1)CCN2c1ccccc1
GI50 (786-0): > 100 µM (inactive) | GI50 (A498): > 100 µM (inactive) | GI50 (A549): > 100 µM (inactive) | GI50 (ACHN): > 100 µM (inactive) | GI50 (BT-549): > 100 µM (inactive) | GI50 (CAKI-1): > 100 µM (inactive) | GI50 (CCRF-CEM): > 100 µM (inactive) | GI50 (COLO 205): > 100 µM (inactive) | GI50 (DU-145): > 100 µM (inactive) | GI50 (EKVX): > 100 µM (inactive) | GI50 (HCC 2998): > 100 µM (inactive) | GI50 (HCT-116): > 100 µM (inactive) | GI50 (HCT-15): > 100 µM | GI50 (HL-60): > 100 µM (inactive) | GI50 (HOP-62): > 100 µM (inactive) | GI50 (HOP-92): 80.7 µM (inactive) | GI50 (HT-29): > 100 µM (inactive) | GI50 (Hs-578T): > 100 µM (inactive) | GI50 (IGROV-1): > 100 µM (inactive) | GI50 (K562): > 100 µM (inactive) | GI50 (KM12): > 100 µM (inactive) | GI50 (LOX IMVI): > 100 µM (inactive) | GI50 (M14): 66.8 µM (inactive) | GI50 (MCF7): > 100 µM (inactive) | GI50 (MDA-MB-231): > 100 µM (inactive) | GI50 (MDA-MB-435): > 100 µM (inactive) | GI50 (MDA-N): > 100 µM (inactive) | GI50 (MOLT-4): > 100 µM (inactive) | GI50 (Malme-3M): > 100 µM (inactive) | GI50 (NCI-H226): > 100 µM (inactive) | GI50 (NCI-H23): > 100 µM (inactive) | GI50 (NCI-H460): > 100 µM (inactive) | GI50 (NCI-H522): 84.1 µM (inactive) | GI50 (NCI/ADR-RES): > 100 µM (inactive) | GI50 (OVCAR-3): > 100 µM (inactive) | GI50 (OVCAR-4): > 100 µM (inactive) | GI50 (OVCAR-5): > 100 µM (inactive) | GI50 (OVCAR-8): > 100 µM (inactive) | GI50 (PC-3): > 100 µM (inactive) | GI50 (RPMI-8226): > 100 µM (inactive) | GI50 (RXF 393): > 100 µM (inactive) | GI50 (SF-268): > 100 µM (inactive) | GI50 (SF-295): > 100 µM (inactive) | GI50 (SF-539): > 100 µM (inactive) | GI50 (SK-MEL-28): > 100 µM (inactive) | GI50 (SK-MEL-2): > 100 µM (inactive) | GI50 (SK-MEL-5): > 100 µM (inactive) | GI50 (SK-OV-3): > 100 µM (inactive) | GI50 (SN12C): > 100 µM (inactive) | GI50 (SNB-19): > 100 µM (inactive) | GI50 (SNB-75): 63.7 µM (inactive) | GI50 (SR): > 100 µM (inactive) | GI50 (SW-620): > 100 µM (inactive) | GI50 (T47D): > 100 µM (inactive) | GI50 (TK-10): > 100 µM (inactive) | GI50 (U-251): > 100 µM (inactive) | GI50 (UACC-257): > 100 µM (inactive) | GI50 (UACC-62): > 100 µM (inactive) | GI50 (UO-31): > 100 µM (inactive)

CCCOC(=O)c1cc(O)c(O)c(O)c1 [PROPYL GALLATE]
GI50 (786-0): 41.4 µM (inactive) | GI50 (A498): > 100 µM (inactive) | GI50 (A549): 27.2 µM (inactive) | GI50 (ACHN): 46.2 µM (inactive) | GI50 (BT-549): 43.8 µM (inactive) | GI50 (CAKI-1): > 100 µM (inactive) | GI50 (CCRF-CEM): > 100 µM (inactive) | GI50 (COLO 205): > 100 µM (inactive) | GI50 (DU-145): 30.3 µM (inactive) | GI50 (EKVX): 27.7 µM (inactive) | GI50 (HCC 2998): 45.1 µM (inactive) | GI50 (HCT-116): 20.8 µM (inactive) | GI50 (HCT-15): 20.7 µM | GI50 (HL-60): > 100 µM (inactive) | GI50 (HOP-62): 33.8 µM (inactive) | GI50 (HOP-92): 60.4 µM (inactive) | GI50 (HT-29): 32.2 µM (inactive) | GI50 (Hs-578T): 17.5 µM (inactive) | GI50 (IGROV-1): 31.3 µM (inactive) | GI50 (K562): > 100 µM (inactive) | GI50 (KM12): 20.5 µM (inactive) | GI50 (LOX IMVI): 16.1 µM (inactive) | GI50 (M14): 20.8 µM (inactive) | GI50 (MCF7): 42 µM (inactive) | GI50 (MDA-MB-231): 58.1 µM (inactive) | GI50 (MDA-MB-435): 19.3 µM (inactive) | GI50 (MDA-N): 14.7 µM (inactive) | GI50 (MOLT-4): 5.83 µM (inactive) | GI50 (Malme-3M): 74.6 µM (inactive) | GI50 (NCI-H226): 17.7 µM (inactive) | GI50 (NCI-H23): > 100 µM (inactive) | GI50 (NCI-H460): 30.1 µM (inactive) | GI50 (NCI-H522): 8.2 µM (inactive) | GI50 (NCI/ADR-RES): 26.5 µM (inactive) | GI50 (OVCAR-3): 25.7 µM (inactive) | GI50 (OVCAR-4): > 100 µM (inactive) | GI50 (OVCAR-5): 49.9 µM (inactive) | GI50 (OVCAR-8): 27.9 µM (inactive) | GI50 (PC-3): 18.7 µM (inactive) | GI50 (RPMI-8226): > 100 µM (inactive) | GI50 (RXF 393): 19.3 µM (inactive) | GI50 (SF-268): 27.7 µM (inactive) | GI50 (SF-295): 47.5 µM (inactive) | GI50 (SF-539): 10.9 µM (inactive) | GI50 (SK-MEL-28): 43.8 µM (inactive) | GI50 (SK-MEL-2): 28.1 µM (inactive) | GI50 (SK-MEL-5): 59.3 µM (inactive) | GI50 (SK-OV-3): > 100 µM (inactive) | GI50 (SN12C): 22.4 µM (inactive) | GI50 (SNB-19): 57.4 µM (inactive) | GI50 (SNB-75): 40.3 µM (inactive) | GI50 (SR): > 100 µM (inactive) | GI50 (SW-620): 51.3 µM (inactive) | GI50 (T47D): 62.1 µM (inactive) | GI50 (TK-10): > 100 µM (inactive) | GI50 (U-251): 56.4 µM (inactive) | GI50 (UACC-257): > 100 µM (inactive) | GI50 (UACC-62): 24.7 µM (inactive) | GI50 (UO-31): 8.95 µM (inactive)
